Series [1] deals with T1, Melanin-concentrating hormone receptor 1 (Homo sapiens, UniProt Q99705). Description: Inhibition constant for human Melanin concentrating hormone receptor 1.
For series [2], the target named is Melanin-concentrating hormone receptor 2 (Homo sapiens, UniProt Q969V1). As to the kind of experiment: Inhibition constant for human Melanin concentrating hormone receptor 2.
In series [3] the test system is Mus musculus. As to the kind of experiment: Reduction in milk consumption by fasted mouse after oral administration.
Series [4] deals with Melanin-concentrating hormone receptor 1 (Mus musculus) (UniProt Q8JZL2). As to the kind of experiment: Ex vivo inhibition of MCH-ADO binding to Melanin concentrating hormone receptor 1 in mice (n=3) 6 hr after 30 mg/kg peroral dose. The format is organism-based. Further details: dose 30 mg/kg. The following applies: at 30 mg/kg.
Series [5] has as its system Mus musculus. Description: In vivo efficacy of compound for food intake by the mice in 24 hr after peroral administration at 30 mpk expressed as percent of vehicle. The format is functional.
The subject of series [6] is Mus musculus. Description: In vivo efficacy of compound for food intake by the mice in 6 hr after peroral administration at 30 mpk expressed as percent of vehicle. The format is functional.
Series [7] relates to Mus musculus. As to the kind of experiment: In vivo efficacy of compound for food intake by the mice in 2 h after peroral administration at 30 mpk expressed as percent of vehicle. The format is functional.
Series [8] deals with T1, Melanin-concentrating hormone receptor 1. As to the kind of experiment: Inhibition of [Ca2+] influx mediated by human Melanin concentrating hormone receptor 1 expressing cells. The format is functional.
The target of series [9] is Melanin-concentrating hormone receptor 1 (Mus musculus, UniProt Q8JZL2). Description: Inhibition constant for mouse Melanin concentrating hormone receptor 1.
The test system of series [10] is Rattus norvegicus. Description: Oral efficacy for reduction in body weight of rats after 4 days of administration; Range is 15-20%. The format is functional.
Series [11] deals with Rattus norvegicus. As to the kind of experiment: Reduction of food intake by rats after 6 hr of administration was measured. The series is classed as functional.
Series [12] concerns the target Melanin-concentrating hormone receptor 1 (Mus musculus) (UniProt Q8JZL2). As to the kind of experiment: Ex vivo inhibition of MCH-ADO binding to Melanin concentrating hormone receptor 1 in mice (n=3) 24 hr r after 30 mg/kg peroral dose. Further details: dose 30 mg/kg. The format is organism-based. Conditions: at 30 mg/kg.
Series [13] can be described thus: Half life of compound in rats (n= 3) after intravenous administration at 10 mpk. The series is classed as ADME, organism-based. Conditions: rat, in vivo, 10 mg/kg.
Series [14] can be described thus: Clearance of compound in rats (n= 3) after intravenous administration at 10 mpk. The series is classed as ADME, organism-based. The following applies: rat, in vivo, 10 mg/kg.
A short description of series [15]: Steady state volume distribution of compound in rats (n= 3) after oral administration at 10 mpk. Conditions: rat, in vivo, 10 mg/kg. The series is classed as ADME, organism-based.
Series [16] is described as follows: Area under concentration time curve (from 0-24 hr) for compound in rats (n= 3) after oral administration at 10 mpk. The series is classed as ADME. Further details: dose 10 mpk, time < 24 hr, route oral. Conditions: rat, in vivo, 10 mg/kg.
Series [17] is described as follows: Bioavailability of compound in rats (n= 3) after oral administration at 10 mpk. The following applies: rat, in vivo, 10 mg/kg. The series is classed as ADME, organism-based.
Series [18] concerns Rattus norvegicus. As to the kind of experiment: Suppression of Melanin concentrating hormone receptor-stimulated food intake in lean rats after 30 mg/kg dose. The series is classed as functional.

This note sets out measurements from ChEMBL document CHEMBL1143560, “Discovery of bicycloalkyl urea melanin concentrating hormone receptor antagonists: orally efficacious antiobesity therapeutics” (J Med Chem, 2005).

By Ki is commonly meant the equilibrium dissociation constant of an inhibitor or competing ligand from its target. For orientation: inhibition means how much of the control response was suppressed. Read a low inhibition as a weak effect. As a reminder, the half-life is how long it takes for the measured level to halve. Read a low half-life as fast loss. The term clearance denotes the rate of elimination divided by the concentration. High values mean efficient removal, low ones inefficient removal. The term AUC denotes concentration integrated over time. A low value points to low exposure. Broadly, the bioavailability is dose-corrected exposure relative to a reference, in per cent.

Sequence of Melanin-concentrating hormone receptor 1 (Mus musculus) (Q8JZL2 whole entry): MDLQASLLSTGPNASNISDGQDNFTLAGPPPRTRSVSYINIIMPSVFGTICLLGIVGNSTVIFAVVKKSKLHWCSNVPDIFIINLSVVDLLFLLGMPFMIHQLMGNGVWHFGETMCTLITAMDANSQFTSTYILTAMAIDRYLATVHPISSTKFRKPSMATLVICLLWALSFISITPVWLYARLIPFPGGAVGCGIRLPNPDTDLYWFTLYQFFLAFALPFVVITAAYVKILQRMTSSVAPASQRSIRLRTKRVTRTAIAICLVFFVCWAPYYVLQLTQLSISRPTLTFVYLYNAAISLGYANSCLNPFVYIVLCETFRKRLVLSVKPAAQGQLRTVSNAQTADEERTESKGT
Sequence of Melanin-concentrating hormone receptor 1 (Mus musculus, UniProt Q8JZL2) (Q8JZL2 whole entry): as above
Sequence of Melanin-concentrating hormone receptor 2 (Q969V1 whole entry): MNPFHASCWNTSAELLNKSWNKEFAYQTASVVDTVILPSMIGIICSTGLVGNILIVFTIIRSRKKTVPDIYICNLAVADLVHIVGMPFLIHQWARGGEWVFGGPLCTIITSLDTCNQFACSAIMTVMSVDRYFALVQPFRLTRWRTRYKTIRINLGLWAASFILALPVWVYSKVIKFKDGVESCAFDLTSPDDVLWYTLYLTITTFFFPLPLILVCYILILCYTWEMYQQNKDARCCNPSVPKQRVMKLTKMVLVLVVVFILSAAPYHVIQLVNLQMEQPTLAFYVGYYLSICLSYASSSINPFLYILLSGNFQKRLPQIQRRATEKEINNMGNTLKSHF
T1 sequence (Q99705 whole entry): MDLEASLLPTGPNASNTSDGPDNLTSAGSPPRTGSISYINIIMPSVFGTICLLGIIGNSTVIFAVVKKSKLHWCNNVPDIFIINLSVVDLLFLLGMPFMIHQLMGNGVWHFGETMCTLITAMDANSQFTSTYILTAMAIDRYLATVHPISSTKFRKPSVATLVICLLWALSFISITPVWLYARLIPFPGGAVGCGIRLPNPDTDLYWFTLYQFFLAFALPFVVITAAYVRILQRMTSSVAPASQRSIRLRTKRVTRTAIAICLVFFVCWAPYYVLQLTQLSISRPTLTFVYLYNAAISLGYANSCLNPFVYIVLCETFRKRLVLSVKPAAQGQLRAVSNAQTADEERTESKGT

Consider `N#Cc1cccc([C@H]2CC[C@H](N(CCN3CC[C@@H](O)C3)C(=O)Nc3ccc(F)c(C(F)(F)F)c3)CC2)c1`, for which the Ki in series [1] is 215 nM; in [2], > 3000 nM.

With `N#Cc1cccc([C@H]2CC[C@@H](N(CCN3CC[C@@H](O)C3)C(=O)Nc3ccc(F)c(C(F)(F)F)c3)CC2)c1`, the Ki in series [1] was 2020 nM; in series [2], > 3000 nM.

`N#Cc1cccc([C@@]23CC[C@@H](N(CCN4CC[C@@H](O)C4)C(=O)Nc4ccc(F)c(Cl)c4)CC2C3)c1` (some centres not stated): in [2], the Ki was > 3000 nM.

Turning to `CC(=O)N(C)C1CCN(c2ccc(NC(=O)N3CCC(c4ccc(Cl)cc4)CC3)cc2)C1` (configuration not stated), the Reduction in series [3] was 64%.

The molecule `N#Cc1ccc([C@]23CC[C@@H](N(CCN4CCCC4)C(=O)Nc4cc(Cl)cc(Cl)c4)[C@H]2C3)cc1` gave an inhibition in series [4] of 76%. Further, the Efficacy came to 94.7% in series [5], 86.6% in series [6] and 78.4% in series [7]. Further, the Ki in series [1] was 18 nM; in [2] it was > 3000 nM.

Consider `C[C@]1(c2cccc(C#N)c2)CC[C@H](N(CCN2CC[C@@H](O)C2)C(=O)Nc2ccc(F)c(C(F)(F)F)c2)CC1`, for which the Ki in series [1] was 391 nM; in [2] it was > 3000 nM.

Consider `C[C@]1(c2cccc(C#N)c2)CC[C@@H](N(CCN2CC[C@@H](O)C2)C(=O)Nc2ccc(F)c(C(F)(F)F)c2)CC1`, for which the Ki in series [1] and in [2] was > 3000 nM in each case.

Regarding `N#Cc1cccc(C2=CCC(N(CCN3CCCC3)C(=O)Nc3ccc(F)c(Cl)c3)CC2)c1` (configuration not stated), the Ki in [1] is 3 nM; in [2], > 3000 nM. In [8], this molecule displayed a Kb of 9 nM.

`N#Cc1cccc(-c2ccc(N(CCN3CC[C@@H](O)C3)C(=O)Nc3ccc(F)c(C(F)(F)F)c3)cc2)c1`: the Ki was 8.9 nM in series [1], > 3000 nM in series [2] and 9.6 nM in [9]. The molecule further returned a Kb in series [8] of 2 nM.

For `CN(C)c1nc(N[C@H]2CC[C@@H](NC(=O)c3ccc(F)c(F)c3)CC2)nc2ccccc12`, the Efficacy in series [10] is 20%.

With `Cc1cc(N(C)CCN(C)C)nc2ccc(NC(=O)/C=C/c3ccc(OC(F)(F)F)cc3)cc12`, in series [11], the Reduction is listed as >30%.

As to `N#Cc1cccc([C@@]23CC[C@@H](N(CCN4CC[C@@H](O)C4)C(=O)Nc4ccc(F)c(Cl)c4)C[C@@H]2C3)c1`, the inhibition came out at 62% in series [4] and 8% in series [12]. For the same molecule, the Efficacy is 98.6% in [5], 99% in series [6] and 80% in series [7]. The Ki in series [2] is > 3000 nM; in series [9], 7.8 nM.

Take `CN1CCN(CCCCN(C(=O)Nc2ccc(F)c(C(F)(F)F)c2)[C@@H]2CC[C@]3(c4ccc(C#N)cc4)C[C@H]23)CC1`: the inhibition was 99% in [4] and 58% in series [12]. Also, the Efficacy in [5] is on record as 78.1%; in series [6], 76%; in series [7] it was 77.3%. The values for the inhibition constant (Ki) in [1], in series [2] and in series [9] were 2.7 nM, > 3000 nM and 3 nM, respectively. In addition, in [13], the half-life was 4 h. In addition, the clearance in [14] came out at 21.8 mL/min/kg. In addition, in series [15], the “Vd(ss)” value came to 5.6 L/kg. Moreover, the AUC in [16] was found to be 2140 ng·h/mL. Moreover, the Kb in series [8] came to 1.9 nM. In addition, the bioavailability in series [17] was 27%.

In the case of `N#Cc1cccc([C@]23CC[C@@H](N(CCN4CC[C@@H](O)C4)C(=O)Nc4ccc(F)c(Cl)c4)C[C@H]2C3)c1`, the inhibition is 50% in series [4] and 13% in [12]. The values for the Efficacy in [5], in [6] and in series [7] were 94.9%, 93.6% and 85%, respectively. The Ki in series [2] is > 3000 nM; in series [9], 5.9 nM.

`N#Cc1ccccc1[C@]12CC[C@@H](N(CCN3CC[C@@H](O)C3)C(=O)Nc3ccc(F)c(C(F)(F)F)c3)[C@H]1C2`: in series [4], the inhibition came out at 81%. Also, the Efficacy in series [5] is on record as 80.8%; in series [6] it was 68.2%; in series [7] it was 65.7%. The Ki in [1] was 7.1 nM; in [2], > 3000 nM.

As for `CN(C)CC1CCc2cc(NC(=O)c3ccc(-c4ccc(F)cc4)cc3)ccc2C1` (configuration not stated), in [18], the Suppression is given as >90%.

As for `N#Cc1cccc([C@]23CC[C@@H](N(CCN4CC[C@@H](O)C4)C(=O)Nc4ccc(F)c(Cl)c4)CC2C3)c1` (some centres not stated), the Ki is > 3000 nM in [2] and 10.7 nM in series [9].
